Results reported in the supplement of paper PMC11061612.

Assays:
[1] = compound: C1CC(C1)(C(=O)[O-])C(=O)[O-].N.N.[Pt+2] [Carboplatin]; conditions: max 10 µM
Method in brief: (§1)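 Plates with 1536 wells received cancer cell lines in 7.5 μl of DMEM/F12 or RPMI containing 10% FBS. After 24 hours at 37°C and 5% CO2, cells were dosed for 72 hours with final DMSO typically 0.2%, and viability was read by CellTiter-Glo 2.0 luminescence scaled between blank-well and DMSO-well means. The single-agent IC50 was taken from a logistic fit of the dose responses made with a non-linear mixed effects model, that logistic curve having two parameters.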

[2] = compound: C1CN(CCC1(C(=O)N[C@@H](CCO)C2=CC=C(C=C2)Cl)N)C3=NC=NC4=C3C=CN4 [AZD5363]; conditions: max 10 µM
Method in brief: as §1

[3] = compound: C=CCn1c(=O)c2cnc(Nc3ccc(N4CCN(C)CC4)cc3)nc2n1-c1cccc(C(C)(C)O)n1 [AZD1775]
Method in brief: as §1

[4] = compound: CC(=O)Nc1cccc(-n2c(=O)n(C3CC3)c(=O)c3c(Nc4ccc(I)cc4F)n(C)c(=O)c(C)c32)c1 [Trametinib]; conditions: max 1 µM
Method in brief: as §1

[5] = compound: CC(=O)O[C@H]1C(=O)[C@@]2(C)[C@H]([C@H](OC(=O)c3ccccc3)[C@]3(O)C[C@H](OC(=O)[C@H](O)[C@@H](NC(=O)c4ccccc4)c4ccccc4)C(C)=C1C3(C)C)[C@]1(OC(C)=O)CO[C@@H]1C[C@@H]2O [Paclitaxel]; conditions: max 3 µM
Method in brief: as §1

[6] = compound: CC(=O)c1c(C)c2cnc(Nc3ccc(N4CCNCC4)cn3)nc2n(C2CCCC2)c1=O [Palbociclib]; conditions: max 10 µM
Method in brief: as §1

[7] = compound: CC(C)n1c(=O)n(C)c2cnc3cc(F)c(-c4ccc(OCCCN5CCCCC5)nc4)cc3c21 [AZD1390]; conditions: max 0.3 µM
Method in brief: as §1

[8] = compound: CC1(C)CCC(CN2CCN(c3ccc(C(=O)NS(=O)(=O)c4ccc(NCC5CCOCC5)c([N+](=O)[O-])c4)c(Oc4cnc5[nH]ccc5c4)c3)CC2)=C(c2ccc(Cl)cc2)C1 [Venetoclax]; conditions: max 1 µM
Method in brief: as §1

[9] = compound: CC1=C(C(=CC=C1)Cl)NC(=O)C2=CN=C(S2)NC3=CC(=NC(=N3)C)N4CCN(CC4)CCO [Dasatinib]; conditions: max 2 µM
Method in brief: as §1

[10] = compound: CC1=CN2[C@@H](C1)C=NC3=CC(=C(C=C3C2=O)OC)OCCCCCOC4=C(C=C5C(=C4)N=C[C@@H]6CC(=CN6C5=O)C)OC [SG3199]; conditions: max 0.001 µM
Method in brief: as §1

[11] = compound: CCN(CCO)CCCOc1ccc2c(Nc3cc(CC(=O)Nc4cccc(F)c4)[nH]n3)ncnc2c1 [AZD2811]; conditions: max 1 µM
Method in brief: as §1

[12] = compound: CCc1c2c(nc3ccc(O)cc13)-c1cc3c(c(=O)n1C2)COC(=O)[C@]3(O)CC [SN-38]; conditions: max 0.3 µM
Method in brief: as §1

[13] = compound: CN(C)CCCOc1ccc(-c2ccc3ncc4c(c3c2)n(C2CCOCC2)c(=O)n4C)cn1 [AZD0156]
Method in brief: as §1

[14] = compound: CN(CC[C@H](CSC1=CC=CC=C1)NC2=C(C=C(C=C2)S(=O)(=O)NC(=O)C3=CC=C(C=C3)N4CCC(CC4)[C@H](C5=CC=CC=C5C6=CC=C(C=C6)Cl)O)S(=O)(=O)C(F)(F)F)CCO [AZD4320]; conditions: max 1 µM
Method in brief: as §1

[15] = compound: COc1cc(Nc2ncc3c(n2)-c2ccc(Cl)cc2C(c2c(F)cccc2OC)=NC3)ccc1C(=O)O [Alisertib]; conditions: max 10 µM
Method in brief: as §1

[16] = compound: COc1cc([C@@H]2c3cc4c(cc3[C@@H](O[C@@H]3O[C@@H]5CO[C@@H](C)O[C@H]5[C@H](O)[C@H]3O)[C@H]3COC(=O)[C@H]23)OCO4)cc(OC)c1O [Etoposide]; conditions: max 10 µM
Method in brief: as §1

[17] = compound: COc1cc2ncnc(Nc3ccc(F)c(Cl)c3)c2cc1OCCCN1CCOCC1 [Gefitinib]; conditions: max 10 µM
Method in brief: as §1

[18] = compound: COc1cccc(OCCCN)c1-c1cc(Nc2cnc(C#N)cn2)n[nH]1 [Prexasertib]; conditions: max 1 µM
Method in brief: as §1

[19] = compound: COc1cccc2c1C(=O)c1c(O)c3c(c(O)c1C2=O)C[C@@](O)(C(=O)CO)C[C@@H]3O[C@H]1C[C@H](N)[C@H](O)[C@H](C)O1 [Doxorubicin]; conditions: max 1 µM
Method in brief: as §1

[20] = compound: COc1nnc2ccc(N3CCC(c4ccc(OCCN5CCN(C)C(=O)[C@H]5C)cc4)CC3)nn12 [AZD5153]; conditions: max 1 µM
Method in brief: as §1

[21] = compound: CS(=O)(=O)CCNCc1ccc(-c2ccc3ncnc(Nc4ccc(OCc5cccc(F)c5)c(Cl)c4)c3c2)o1 [Lapatinib]; conditions: max 10 µM
Method in brief: as §1

[22] = compound: C[C@@H](Nc1cc(F)cc(F)c1)c1cc(C(=O)N(C)C)cc2c(=O)cc(N3CCOCC3)oc12 [AZD8186]; conditions: max 10 µM
Method in brief: as §1

[23] = compound: C[C@@H](Oc1cc(-c2cnn(C3CCNCC3)c2)cnc1N)c1c(Cl)ccc(F)c1Cl [Crizotinib]; conditions: max 10 µM
Method in brief: as §1

[24] = compound: C[C@@H](c1ccc2nccn2c1)n1nnc2ncc(-c3cnn(C)c3)nc21 [Savolitinib]; conditions: max 1 µM
Method in brief: as §1

[25] = compound: C[C@@H]1COCCN1C2=NC(=NC(=C2)C3(CC3)[S@](=N)(=O)C)C4=C5C=CNC5=NC=C4 [AZD6738]; conditions: max 10 µM
Method in brief: as §1

[26] = compound: Cc1c2c(nn1C)CSCc1cc(n(C)n1)CSc1cc(c3ccccc3c1)OCCCc1c(C(=O)O)n(C)c3c-2c(Cl)ccc13 [AZD5991]; conditions: max 1 µM
Method in brief: as §1

[27] = compound: Cc1cc2ncnn2cc1Nc1ncc2c(n1)n(C1CCOCC1)c(=O)n2C [AZD7648]; conditions: max 10 µM
Method in brief: as §1

[28] = compound: Cc1nc(-c2cn3c(n2)-c2ccc(-c4cnn(C(C)(C)C(N)=O)c4)cc2OCC3)n(C(C)C)n1 [Taselisib]; conditions: max 10 µM
Method in brief: as §1

[29] = compound: Cn1cnc2c(F)c(Nc3ccc(Br)cc3Cl)c(C(=O)NOCCO)cc21 [Selumetinib]; conditions: max 10 µM
Method in brief: as §1

[30] = compound: N#Cc1cnc(Nc2cc(NC[C@H]3CNCCO3)c(C(F)(F)F)cn2)cn1 [SRA737]; conditions: max 10 µM
Method in brief: as §1

[31] = compound: NC1(c2ccc(-c3nc4ccn5c(=O)[nH]nc5c4cc3-c3ccccc3)cc2)CCC1 [MK-2206]; conditions: max 10 µM
Method in brief: as §1

[32] = compound: Nc1ccn([C@@H]2O[C@H](CO)[C@@H](O)C2(F)F)c(=O)n1 [Gemcitabine]; conditions: max 0.3 µM
Method in brief: as §1

[33] = compound: O=C(Nc1ccc2[nH]nc(-c3ccncc3)c2c1)[C@@H]1CCN(CC(=O)N2CCN(c3ccc(-c4ncccn4)cc3)CC2)C1; conditions: max 5 µM
Method in brief: as §1

[34] = compound: O=C(c1cc(Cc2n[nH]c(=O)c3ccccc23)ccc1F)N1CCN(C(=O)C2CC2)CC1 [Olaparib]; conditions: max 10 µM
Method in brief: as §1

[35] = compound: O=c1[nH]cc(F)c(=O)[nH]1 [5-Fluorouracil]; conditions: max 20 µM
Method in brief: as §1

| Cell Line | IC50, cell viability 72 h [1] | IC50, cell viability 72 h [2] | IC50, cell viability 72 h ([3]; max 1 µM) | IC50, cell viability 72 h [4] | IC50, cell viability 72 h [5] | IC50, cell viability 72 h [6] | IC50, cell viability 72 h [7] | IC50, cell viability 72 h [8] | IC50, cell viability 72 h [9] | IC50, cell viability 72 h [10] | IC50, cell viability 72 h [11] | IC50, cell viability 72 h [12] | IC50, cell viability 72 h ([13]; max 1 µM) | IC50, cell viability 72 h [14] | IC50, cell viability 72 h [15] | IC50, cell viability 72 h [16] | IC50, cell viability 72 h [17] | IC50, cell viability 72 h [18] | IC50, cell viability 72 h [19] | IC50, cell viability 72 h [20] | IC50, cell viability 72 h [21] | IC50, cell viability 72 h [22] | IC50, cell viability 72 h [23] | IC50, cell viability 72 h [24] | IC50, cell viability 72 h [25] | IC50, cell viability 72 h [26] | IC50, cell viability 72 h [27] | IC50, cell viability 72 h [28] | IC50, cell viability 72 h [29] | IC50, cell viability 72 h [30] | IC50, cell viability 72 h [31] | IC50, cell viability 72 h [32] | IC50, cell viability 72 h [33] | IC50, cell viability 72 h [34] | IC50, cell viability 72 h [35] | IC50, cell viability 72 h ([3]; max 3 µM) | IC50, cell viability 72 h ([13]; max 3 µM) |
| --- | --- | --- | --- | --- | --- | --- | --- | --- | --- | --- | --- | --- | --- | --- | --- | --- | --- | --- | --- | --- | --- | --- | --- | --- | --- | --- | --- | --- | --- | --- | --- | --- | --- | --- | --- | --- | --- |
| SW48 (Colorectal Carcinoma) | > 10 µM | > 10 µM | > 1 µM | 0.123 µM | 0.00337 µM | > 10 µM | > 0.3 µM | > 1 µM | > 2 µM | > 0.001 µM | 0.0239 µM | 0.0133 µM | > 1 µM | > 1 µM | 0.0584 µM | 0.517 µM | > 10 µM | 0.117 µM | 0.0686 µM | 0.254 µM | 8.92 µM | > 10 µM | 3.36 µM | > 1 µM | 7.01 µM | > 1 µM | > 10 µM | 2.37 µM | > 10 µM | > 10 µM | > 10 µM | 0.0926 µM | 1.33 µM | > 10 µM | > 20 µM | – | – |
| SW948 (Colorectal Carcinoma) | > 10 µM | 6.29 µM | – | 0.0352 µM | 0.0299 µM | > 10 µM | > 0.3 µM | > 1 µM | > 2 µM | > 0.001 µM | > 1 µM | > 0.3 µM | – | > 1 µM | 0.0444 µM | > 10 µM | > 10 µM | 0.136 µM | > 1 µM | 0.918 µM | > 10 µM | > 10 µM | 5.44 µM | > 1 µM | > 10 µM | > 1 µM | > 10 µM | 0.343 µM | 1.08 µM | > 10 µM | > 10 µM | > 0.3 µM | 2.47 µM | > 10 µM | > 20 µM | 1.39 µM | > 3 µM |
| Saos-2 (Osteosarcoma) | > 10 µM | > 10 µM | – | > 1 µM | 0.0446 µM | > 10 µM | > 0.3 µM | > 1 µM | > 2 µM | > 0.001 µM | 0.971 µM | 0.0109 µM | – | > 1 µM | 9.26 µM | 3.65 µM | > 10 µM | 0.102 µM | 0.556 µM | 0.887 µM | > 10 µM | > 10 µM | 5.11 µM | > 1 µM | > 10 µM | > 1 µM | > 10 µM | 3.21 µM | > 10 µM | > 10 µM | > 10 µM | 0.0364 µM | > 5 µM | > 10 µM | > 20 µM | 1.23 µM | > 3 µM |
| WSU-DLCL2 (B-Cell Non-Hodgkin's Lymphoma) | > 10 µM | 0.253 µM | – | > 1 µM | 0.00448 µM | 7.44 µM | > 0.3 µM | > 1 µM | > 2 µM | > 0.001 µM | > 1 µM | 0.00596 µM | – | 0.794 µM | 1.64 µM | 0.73 µM | > 10 µM | 0.0188 µM | 0.0539 µM | 0.0559 µM | > 10 µM | 5.81 µM | 8.08 µM | > 1 µM | 2.69 µM | 0.137 µM | > 10 µM | 2.7 µM | > 10 µM | > 10 µM | 1.67 µM | 0.0065 µM | > 5 µM | > 10 µM | > 20 µM | 0.531 µM | 2.15 µM |
| YT (Other Blood Carcinomas) | > 10 µM | > 10 µM | – | > 1 µM | 0.0465 µM | 4.04 µM | > 0.3 µM | > 1 µM | > 2 µM | > 0.001 µM | > 1 µM | 0.00413 µM | – | > 1 µM | > 10 µM | 0.374 µM | > 10 µM | 0.0268 µM | 0.511 µM | 0.196 µM | > 10 µM | > 10 µM | 8.37 µM | > 1 µM | 3.17 µM | 0.0494 µM | 6.93 µM | 1.79 µM | > 10 µM | 4.81 µM | > 10 µM | 0.0365 µM | > 5 µM | > 10 µM | 0.808 µM | 0.442 µM | > 3 µM |
